Measured values reported in doi:10.1101/2025.08.13.670152v1 (biorxiv, 2025).

Target: CHI3L1/galectin-3 (CHI3L1-His and galectin-3-GST) (Homo sapiens, UniProt P36222)
Assay: AlphaLISA, inhibition of CHI3L1/galectin-3 interaction
Type: biochemical
Details: read-out: % inhibition at 100 μM

Sequence of CHI3L1/galectin-3 (CHI3L1-His and galectin-3-GST) (P36222 22-383): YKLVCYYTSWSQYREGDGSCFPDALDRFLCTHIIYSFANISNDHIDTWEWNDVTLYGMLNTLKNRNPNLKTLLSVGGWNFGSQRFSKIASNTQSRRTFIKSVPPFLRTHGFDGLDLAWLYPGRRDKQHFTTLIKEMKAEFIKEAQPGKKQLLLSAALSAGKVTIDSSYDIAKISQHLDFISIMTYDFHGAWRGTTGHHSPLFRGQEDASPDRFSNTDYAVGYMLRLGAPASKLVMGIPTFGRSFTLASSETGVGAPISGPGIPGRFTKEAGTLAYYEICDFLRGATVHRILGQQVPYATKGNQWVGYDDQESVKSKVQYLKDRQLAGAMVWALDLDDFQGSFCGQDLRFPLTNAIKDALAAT
Sequence of CHI3L1/galectin-3 (CHI3L1-His and galectin-3-GST) (P17931 2-250 partner): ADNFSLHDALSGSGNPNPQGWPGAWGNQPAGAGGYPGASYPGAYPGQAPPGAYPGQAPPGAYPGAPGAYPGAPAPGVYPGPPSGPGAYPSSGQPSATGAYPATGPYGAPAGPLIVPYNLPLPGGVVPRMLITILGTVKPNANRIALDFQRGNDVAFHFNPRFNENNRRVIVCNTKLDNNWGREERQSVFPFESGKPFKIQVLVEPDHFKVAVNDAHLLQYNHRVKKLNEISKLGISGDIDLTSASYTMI

Work on `CC(C)c1cccc(-c2ccc3ncn(C)c(=O)c3c2)c1` [3C13] yielded an inhibition at 100 µM of 27.5 ± 3.1%.
